Source: PubChem BioAssay (NCI)
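Method: 48-hour compound exposure of cells in 96-well plates, five concentrations, linear interpolation of endpoints. GI50 marks 50% less growth. TGI: total growth inhibition.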

Legend:
Test in all cases: NCI tumour cell line growth inhibition, 48 h
[1] = tested on: CAKI-1 renal
[2] = tested on: OVCAR-4 ovarian
[3] = tested on: MCF7 breast
[4] = tested on: SF-295 CNS
[5] = tested on: SK-OV-3 ovarian
[6] = tested on: ACHN renal
[7] = tested on: HCT-15 colon
[8] = tested on: CCRF-CEM leukemia
[9] = tested on: HCC-2998 colon
[10] = tested on: HS 578T breast
[11] = tested on: SF-539 CNS
[12] = tested on: UACC-62 melanoma
[13] = tested on: A498 renal
[14] = tested on: HL-60(TB) leukemia
[15] = tested on: M14 melanoma
[16] = tested on: LOX IMVI melanoma
[17] = tested on: MDA-MB-435
[18] = tested on: SR leukemia
[19] = tested on: NCI-H226 lung
[20] = tested on: HCT-116 colon
[21] = tested on: OVCAR-3 ovarian
[22] = tested on: OVCAR-5 ovarian
[23] = tested on: MDA-MB-231 breast
[24] = tested on: DU-145 prostate
[25] = tested on: SN12C renal
[26] = tested on: UO-31 renal

CC(C)[P+](c1ccccc1)(c1ccccc1)c1ccccc1
GI50 [1]: 50.7 µM | TGI [1]: > 100 µM | GI50 [2]: 3.7 µM | TGI [2]: 94.6 µM | GI50 [3]: 3.69 µM | TGI [3]: > 100 µM | GI50 [4]: 7.41 µM | TGI [4]: 36.6 µM | GI50 [5]: 22.4 µM | TGI [5]: > 100 µM | GI50 [6]: 86.8 µM | TGI [6]: > 100 µM | GI50 [7]: > 100 µM | TGI [7]: > 100 µM | GI50 [8]: 4.2 µM | TGI [8]: > 100 µM | GI50 [9]: 3.36 µM | TGI [9]: > 100 µM | GI50 [10]: 13.4 µM | TGI [10]: > 100 µM | GI50 [11]: 15.6 µM | TGI [11]: > 100 µM | GI50 [12]: 4.2 µM | TGI [12]: > 100 µM | GI50 [13]: 9.22 µM | TGI [13]: 74.9 µM | GI50 [14]: 2.24 µM | TGI [14]: 7.5 µM | GI50 [15]: 11.2 µM | TGI [15]: > 100 µM | GI50 [16]: 9.94 µM | TGI [16]: > 100 µM | GI50 [17]: 2.65 µM | TGI [17]: 25.3 µM | GI50 [18]: 3.05 µM | TGI [18]: > 100 µM | GI50 [19]: 5.69 µM | TGI [19]: > 100 µM | GI50 [20]: 3.94 µM | TGI [20]: > 100 µM | GI50 [21]: 4.49 µM | TGI [21]: > 100 µM | GI50 [22]: 28.5 µM | TGI [22]: > 100 µM | GI50 [23]: 10.6 µM | TGI [23]: > 100 µM | GI50 [24]: 7.29 µM | TGI [24]: > 100 µM | GI50 [25]: 11.5 µM | TGI [25]: > 100 µM | GI50 [26]: > 100 µM | TGI [26]: > 100 µM
